Tests used:
[1] = test system: c-Myc22 (G14T-G23T) (DNA, G4) TGAGGGTGGGTAGGGTGGGTAA; test: G4-FID; conditions: 100 mM KCl, 10 mM lithium cacodylate pH 7.3, thiazole orange 0.5 µM displaced
[2] = test system: NRAS (RNA, G4) GGGAGGGGCGGGUCUGGG; test: G4-FID; conditions: 100 mM KCl, 10 mM lithium cacodylate pH 7.3, thiazole orange 0.5 µM displaced
[3] = test system: CEB25L111T (DNA, G4) AAGGGTGGGTGGGTGGGT; test: G4-FID; conditions: 100 mM KCl, 10 mM lithium cacodylate pH 7.3, thiazole orange 0.5 µM displaced
[4] = test system: F21T (DNA, G4) GGGTTAGGGTTAGGGTTAGGG; test: FRET melting; conditions: 10 mM KCl, 90 mM LiCl; 10 mM lithium cacodylate pH 7.2; 0.2 µM G4; 1 µM ligand; no competitor
[5] = test system: 21CTA (DNA, G4) GGGCTAGGGCTAGGGCTAGGG; test: G4-FID; conditions: 100 mM KCl, 10 mM lithium cacodylate pH 7.3, thiazole orange 0.5 µM displaced
[6] = test system: 22AG (DNA, G4) AGGGTTAGGGTTAGGGTTAGGG; test: G4-FID; conditions: 100 mM KCl, 10 mM lithium cacodylate pH 7.3, thiazole orange 0.5 µM displaced
[7] = test system: TERRA (RNA, G4) AGGGUUAGGGUUAGGGUUAGGG; test: G4-FID; conditions: 100 mM KCl, 10 mM lithium cacodylate pH 7.3, thiazole orange 0.5 µM displaced
[8] = test system: cKit2 (DNA, G4) GGGCGGGCGCGAGGGAGGGG; test: G4-FID; conditions: 100 mM KCl, 10 mM lithium cacodylate pH 7.3, thiazole orange 0.5 µM displaced
[9] = test system: CEB25wt (DNA, G4) AAGGGTGGGTGTAAGTGTGGGTGGGT; test: G4-FID; conditions: 100 mM KCl, 10 mM lithium cacodylate pH 7.3, thiazole orange 0.5 µM displaced
[10] = test system: Biot-hTelo (DNA, G4) GGTTAGGGTTAGGGTTAGGGTTAGGGTTAGG; test: adapted ELISA, anti-BrdU antibody; conditions: 100 mM KCl; 10 mM Tris-HCl pH 7.4; 250 nM ligand, oligonucleotide varied; apparent
[11] = test system: Biot-cMyc (DNA, G4) TGAGGGTGGGTAGGGTGGGTAA; test: adapted ELISA, anti-BrdU antibody; conditions: 100 mM KCl; 10 mM Tris-HCl pH 7.4; 250 nM ligand, oligonucleotide varied; apparent
[12] = test system: Biot-TERRA (RNA, G4) UUAGGGUUAGGGUUAGGGUUAGGG; test: adapted ELISA, anti-BrdU antibody; conditions: 100 mM KCl; 10 mM Tris-HCl pH 7.4; 250 nM ligand, oligonucleotide varied; apparent

DC50 ([1]; 0.25 µM G4) [nM] | DC50 ([2]; 0.25 µM G4) [µM] | DC50 ([3]; 0.25 µM G4) [nM] | binding [4] | DC50 ([5]; 0.25 µM G4) [nM] | DC50 ([6]; 0.25 µM G4) [nM] | DC50 ([7]; 0.25 µM G4) [µM] | DC50 ([8]; 0.25 µM G4) [nM] | DC50 ([9]; 0.25 µM G4) [nM] | Kd [10] [nM] | Kd [11] [nM] | Kd [12] [nM] | DC50 ([1]; 0.25 µM DNA) [nM] | DC50 ([2]; 0.25 µM RNA, decimal comma) | DC50 ([3]; 0.25 µM DNA) [nM] | DC50 ([5]; 0.25 µM DNA) [nM] | DC50 ([6]; 0.25 µM DNA) [nM] | DC50 ([7]; 0.25 µM RNA, decimal comma) | DC50 ([8]; 0.25 µM DNA) [nM] | DC50 ([9]; 0.25 µM DNA) [nM] | Structure (SMILES)
310 | 0.21 | 230 | yes | 300 | 370 | 0.31 | 200 | 400 |  |  |  |  |  |  |  |  |  |  |  | C#CCCCC(=O)NCCCCNc1cc(C(=O)Nc2cc3ccccc3[n+](C)c2)nc(C(=O)Nc2cc3ccccc3[n+](C)c2)c1
520 | 0.32 | 480 |  | 1100 | 800 | 0.42 | 380 | 760 | 9.6 ± 1.3 | 3.5 ± 0.9 | 29.6 ± 7.8 |  |  |  |  |  |  |  |  | C[n+]1cc(NC(=O)c2cc(NCCCCNC(=O)CCCc3cn(CO[C@H]4C[C@H](n5cc(Br)c(=O)[nH]c5=O)O[C@@H]4CO)nn3)cc(C(=O)Nc3cc4ccccc4[n+](C)c3)n2)cc2ccccc21
 |  |  |  |  |  |  |  |  |  |  |  | 150 | 0,20 µM | 260 | 180 | 340 | 0,25 µM | 180 | 290 | C[n+]1cc(NC(=O)c2cccc(C(=O)Nc3cc4ccccc4[n+](C)c3)n2)cc2ccccc21

Source: publication PMC8682774 (2021)
